Measurements from publication PMC11215747, “Improved Rigidin-Inspired Antiproliferative Agents with Modifications on the 7-Deazahypoxanthine C7/C8 Ring Systems” (Journal of Medicinal Chemistry, 2024).
“Also recorded” adds a separate entry of the source. Like-named read-outs stand apart in the source and are kept apart here.

Tests used:
HeLa cells [1] = experiment: MTT antiproliferative assay against HeLa cells; assay type: cell-based, Human; settings: Homo sapiens, MTT, 48 h, average and SD from two independent determinations, each in quadruplicate (footnote c), read-out: GI50 (μM) ± SD
Experimental: The 3-(4,5-dimethylthiazol-2-yl)-2,5-diphenyltetrazolium bromide (MTT) assay was employed to evaluate the antiproliferative activities of the synthesized 7-deazahypoxathine analogues. The HeLa, PNT1A, or PANC-1 cell lines were assessed by trypsinizing and seeding 4 × 10^3 cells per well into 96-well plates. Synthesized compounds were dissolved in DMSO at a concentration of either 50 mM or 100 mM before cell treatment. Cells were grown for 24 h and then treated with compounds at concentrations ranging from 0.04 to 100 μM and incubated for 48 h in 200 μL media. Twenty microliters of MTT reagent in serum-free medium (5 mg/mL) was added to each well and incubated further for 2 h. Media was removed and the resulting formazan crystals were resolubilized in 200 μL of DMSO. A Thermomax Molecular Device plate reader was utilized to measure A490. Experiments were performed in quadruplicate and repeated at least twice for each compound. The control comprised of cells treated with 0.1% DMSO. One micromolar phenyl arsine oxide (PAO) was utilized as a positive killing control. […]

HeLa cells [2] = experiment: Annexin V apoptosis assay and cell-fate tracking in HeLa cells; assay type: cell-based, Human; settings: 20 nM; for apoptosis at the 30 hour time point (Annexin V fluorescence): 6 biological replicates, one-way ANOVA amongst compounds; for total numbers of cells that died following mitotic arrest: single-cell tracking, >130 cells per treatment
Experimental: To directly assess apoptosis in living cells, HeLa cells were plated (six biological replicates per condition) in 96-well Imagelock Plates (Sartorius BA-04855) at a density of 1,562.5 cells/cm^2. The following day, cells were placed in media containing IncuCyte Annexin V Dye (Sartorius 4642) supplemented with either 0.1% Dimethyl sulfoxide or test compounds (20 nM), and plates were placed in a Sartorius Incucyte S3 live cell imaging system. Plates were scanned hourly, with phase contrast and green fluorescence images were acquired at three positions per well. Raw fluorescence data was processed using Incucyte software, and Prism Graphpad was used for data visualization and statistical analysis. To track individual cell fates, combined phase contrast/fluorescence time lapse sequences were exported from multiple wells per condition, and cell fates individual cells were scored and tabulated using Graphpad Prism software.

PNT1A cells = experiment: MTT cytotoxicity assay against normal epithelial cell line PNT1A; assay type: cell-based; settings: Homo sapiens, PNT1A
Experimental: (§1) The 3-(4,5-dimethylthiazol-2-yl)-2,5-diphenyltetrazolium bromide (MTT) assay was employed to evaluate the antiproliferative activities of the synthesized 7-deazahypoxathine analogues. The HeLa, PNT1A, or PANC-1 cell lines were assessed by trypsinizing and seeding 4 × 10^3 cells per well into 96-well plates. Synthesized compounds were dissolved in DMSO at a concentration of either 50 mM or 100 mM before cell treatment. Cells were grown for 24 h and then treated with compounds at concentrations ranging from 0.04 to 100 μM and incubated for 48 h in 200 μL media. Twenty microliters of MTT reagent in serum-free medium (5 mg/mL) was added to each well and incubated further for 2 h. Media was removed and the resulting formazan crystals were resolubilized in 200 μL of DMSO. A Thermomax Molecular Device plate reader was utilized to measure A490. Experiments were performed in quadruplicate and repeated at least twice for each compound. The control comprised of cells treated with 0.1% DMSO. One micromolar phenyl arsine oxide (PAO) was utilized as a positive killing control.

HeLa cells [3] = experiment: Live cell imaging of EGFP-tubulin expressing HeLa cells; assay type: cell-based, Human; settings: 7.5 nM (50% of GI50), 4 h
Experimental: HeLa cells were plated on 35 mm glass-bottomed Mattek dishes (Mattek, code P35G-1.5–14-C). Next day, transient transfection of EGFP-tubulin was performed using a Lipofectamine 2000 (Thermofisher code 11668019) according to the manufacturer’s instructions. After 6 h of transfection, cells were cultured in fresh media overnight before being treated with either 0.1% DMSO or 7.5 nM analogue 33 for 4 h. To visualize chromatin, cells were cultured in the presence the cell permeant NucSpot Live nuclear stain (Biotium code 40082) for 60 min prior to imaging. Cells were imaged live using an Andor Dragonfly 505 spinning disk confocal system mounted on an Olympus IX83 inverted microscope. Cell viability was maintained by an Oko Touch prewarmed (37 °C) temperature-controlled microscope stage supplied with 5% CO2. Z-stacks (10 planes at […] intervals) were acquired every 2 min using a 60× Aprochromat silicon objective (NA 1.30) and an Andor iXon 888 EMCCD camera driven by Andor Fusion software. Fusion IMS files were converted to tiff images and avi movies using FIJI, and figures were prepared in Adobe Photoshop CS5.

HeLa cells [4] = experiment: Microtubule organization by immunolabeling in HeLa cells; assay type: cell-based, Human; settings: 4 h
Experimental: To examine microtubule morphology in rigidin-treated cells, HeLa cells were incubated for 4 h in the presence or absence of test compound before being fixed with 3.7% formaldehyde in PBS and permeabilized with 0.1% Triton X-100 in PBS. After blocking the cells with 3% bovine serum albumin in PBS, they were probed with antibodies for the centromere marker CENP-B (Abcam, code ab25734) and tubulin (Sigma, code sc-53029), which were detected with Alexa Fluor-labeled secondary antibodies (Thermofisher). Hoechst 33342 (1 mg/mL, Thermofisher H3570) was used to stain DNA. Samples were mounted on glass slides and imaged using Andor Dragonfly 505 spinning disk confocal system mounted on an Olympus IX83 inverted microscope. Figures were created with Adobe Photoshop CS5. All drugs were resuspended in DMSO, and 0.1% DMSO served as a carrier control.

PANC-1 cells = experiment: MTT cytotoxicity assay against PANC-1 cells; assay type: cell-based; settings: Homo sapiens; PANC-1 cell line
Experimental: as §1

tubulin = target: T1, tubulin (Sus scrofa, UniProt P02554); experiment: Fluorescence-based tubulin polymerization assay; assay type: biochemical; settings: 25 μM, relative to 1% DMSO control, averaged from two experiments
T1 construct: purchased Cytoskeleton, Inc
Experimental: The fluorescence-based tubulin polymerization assay from Cytoskeleton, Inc. was used. […] The tubulin reaction mixture was prepared per manufacturer’s instructions, kept on ice, and used within ∼15 min of preparation. A Biotek Synergy H4 hybrid multimode plate reader was preheated to 37 °C. Prior to starting the assay, a half-area black 96-well plate was preheated within the plate reader. A volume of 5 μL of each of the tested samples was pipetted into separate wells of the plate and incubated in the warm plate reader for 1 min.

colon cancer = system: colon cancer; design: method as in PMID 26641132; settings: mouse model for colon cancer, 3 mg/kg; cited from earlier work
human colon cancer lines = system: human colon cancer lines; design: method as in PMID 26641132; settings: several human colon cancer lines; cited from earlier work
MCF-7 cells = system: MCF-7 cells; design: method as in PMID 26641132; settings: cited from earlier work
[5] = system: WI38 embryonic lung fibroblast cell line; design: method as in PMID 26641132; settings: fold less active; cited from earlier work

T1 sequence (P02554 whole entry): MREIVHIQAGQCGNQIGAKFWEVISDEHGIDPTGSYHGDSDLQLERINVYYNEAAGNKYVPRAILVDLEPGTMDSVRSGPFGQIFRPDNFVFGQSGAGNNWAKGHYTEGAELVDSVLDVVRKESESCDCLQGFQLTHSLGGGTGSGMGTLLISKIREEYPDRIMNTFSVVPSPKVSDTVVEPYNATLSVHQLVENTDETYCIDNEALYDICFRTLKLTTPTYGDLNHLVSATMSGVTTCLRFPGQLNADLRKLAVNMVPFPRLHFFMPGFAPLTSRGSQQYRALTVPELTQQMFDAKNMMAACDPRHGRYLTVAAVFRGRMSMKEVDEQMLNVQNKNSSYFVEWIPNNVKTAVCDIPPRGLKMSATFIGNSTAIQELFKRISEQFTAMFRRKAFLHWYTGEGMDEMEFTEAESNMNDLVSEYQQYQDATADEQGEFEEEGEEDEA
T1 sequence (P02550 whole entry partner): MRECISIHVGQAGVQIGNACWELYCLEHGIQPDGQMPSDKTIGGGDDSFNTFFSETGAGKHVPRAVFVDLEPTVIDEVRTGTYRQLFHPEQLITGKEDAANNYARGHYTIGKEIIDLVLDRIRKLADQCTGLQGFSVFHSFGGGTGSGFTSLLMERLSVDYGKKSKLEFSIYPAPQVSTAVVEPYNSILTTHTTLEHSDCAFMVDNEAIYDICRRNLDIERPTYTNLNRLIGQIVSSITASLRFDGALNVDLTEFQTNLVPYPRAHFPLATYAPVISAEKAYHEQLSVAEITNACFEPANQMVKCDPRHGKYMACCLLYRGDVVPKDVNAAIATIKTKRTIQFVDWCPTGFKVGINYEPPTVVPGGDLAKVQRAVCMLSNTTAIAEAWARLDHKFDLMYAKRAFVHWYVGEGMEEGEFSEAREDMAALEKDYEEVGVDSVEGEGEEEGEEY

| SMILES | GI50 (HeLa cells [1]) [µM] | apoptosis at the 30 hour time point (Annexin V fluorescence) (HeLa cells [2]) | total numbers of cells that died following mitotic arrest (HeLa cells [2]) [%] | GI50 (PNT1A cells; molecular formula strings CSV, read-out: PNT1A GI50) [nM] | mitotic progression in live cell imaging (HeLa cells [3]) | effect on interphase microtubules (HeLa cells [4]; at GI50 concentrations) | effect on spindle morphology (HeLa cells [4]; at GI50 concentrations) | syntelic chromosome attachments (HeLa cells [4]; lower concentrations (GI25)) | GI50 (PANC-1 cells) [nM] | effect on in vitro tubulin polymerization (tubulin) | GI50 (PNT1A cells; read-out: PNT1A GI50(mM)) [nM] | body weight (colon cancer) | side effects (colon cancer) | tumor size (colon cancer) | GI50 values (human colon cancer lines) | GI50 (MCF-7 cells) [nM] | activity against WI38 compared to four colorectal cancer cell lines [5] |
| --- | --- | --- | --- | --- | --- | --- | --- | --- | --- | --- | --- | --- | --- | --- | --- | --- | --- |
| C#CCCCc1nc(=O)c2c(-c3ccccc3)c(C(=O)c3ccc(OCCOCC)cc3)[nH]c2[nH]1 [Compound 33, 6-[4-(2-Ethoxyethoxy)benzoyl]-2-(pent-4-yn-1-yl)-5-phenyl-1,7-dihydro-4H-pyrrolo[2,3-d]pyrimidin-4-one] | 0.015 ± 0.004 | no significant differences | 86 | 24 ± 5 | various responses ranging from correcting the syntelic attachments and progressing through mitosis to prolonged prometaphase arrest, followed by mitotic exit and/or cell death | no striking effects on interphase microtubules | remarkable effects on the spindle morphology | still prevalent | 15 | potent inhibition of microtubule assembly; also recorded: completely suppress tubulin polymerization | – | – | – | – | – | – | – |
| C#CCCCc1nc(=O)c2c(-c3ccccc3)c(C(=O)c3ccccc3)[nH]c2[nH]1 [Compound 1, 6-Benzoyl-2-(pent-4-yn-1-yl)-5-phenyl-1,7-dihydro-4H-pyrrolo[2,3-d]pyrimidin-4-one] | – | no significant differences | 75 | – | – | – | – | – | – | – | 36 ± 9 | maintaining body weight | no observable side effects | significant tumor size reduction | approaching single-digit nanomolar values | 35 | approximately 1000 fold |
